{"source": "paper PMC12892976", "about": "“Alkylation-based optimization of antifungal FPPS inhibitors yields a potent, broad-spectrum lipophilic zoledronate derivative” (mBio, 2025)", "key": {"[1]": {"test_system": "Aspergillus parafelis", "assay": "MIC broth microdilution (CLSI)", "assay_type": "cell-based", "details": "Aspergillus parafelis DTO 341-F2", "protocol": "(§2) Antifungal susceptibility was determined by broth microdilution according to the CLSI guidelines described in M27-Ed4 ([16])."}, "[2]": {"test_system": "Epidermophyton floccosum", "assay": "checkerboard drug interaction (FICI, MICc)", "protocol": "(§3) Drug interactions between antifungals and FPPS inhibitors were investigated using a simplified checkerboard diagonal screening method ([45]). […] FICIs were determined according to the Loewe additivity model ([17])."}, "[3]": {"test_system": "Cryptococcus bacillisporus", "assay": "MIC broth microdilution (CLSI)", "assay_type": "cell-based", "details": "Cryptococcus bacillisporus NIH179", "protocol": "as §2"}, "[4]": {"test_system": "Trichophyton interdigitale", "assay": "checkerboard drug interaction (FICI, MICc)", "protocol": "as §3"}, "[5]": {"test_system": "Aspergillus lentulus", "assay": "MIC broth microdilution (CLSI)", "assay_type": "cell-based", "details": "Aspergillus lentulus DTO 341-G7", "protocol": "as §2"}, "[6]": {"test_system": "Aspergillus frankstonensis", "assay": "MIC broth microdilution (CLSI)", "assay_type": "cell-based", "details": "Aspergillus frankstonensis DTO 341-F3", "protocol": "as §2"}, "[7]": {"test_system": "Aspergillus terreus", "assay": "MIC broth microdilution (CLSI)", "assay_type": "cell-based", "details": "Aspergillus terreus 75-16-089-2500", "protocol": "as §2"}, "[8]": {"test_system": "Nannizzia gypsea", "assay": "MIC broth microdilution (CLSI)", "assay_type": "cell-based", "details": "Nannizzia gypsea R-131", "protocol": "as §2"}, "[9]": {"test_system": "Trichophyton soudanense", "assay": "MIC broth microdilution (CLSI)", "details": "Trichophyton soudanense R-167", "protocol": "as §2"}, "[10]": {"test_system": "Mucor circinelloides", "assay": "MIC broth microdilution (CLSI)", "assay_type": "cell-based", "details": "Mucor circinelloides 80-14-240-5007", "protocol": "as §2"}, "[11]": {"test_system": "Cryptococcus gattii", "assay": "checkerboard drug interaction (FICI, MICc)", "assay_type": "cell-based", "protocol": "as §3"}, "[12]": {"test_system": "Aspergillus frankstonensis", "assay": "checkerboard drug interaction (FICI, MICc)", "protocol": "as §3"}, "[13]": {"test_system": "Scedosporium apiospermum", "assay": "MIC broth microdilution (CLSI)", "assay_type": "cell-based", "details": "Scedosporium apiospermum 04-16-022-2268", "protocol": "as §2"}, "[14]": {"test_system": "Cryptococcus deneoformans", "assay": "checkerboard drug interaction (FICI, MICc)", "assay_type": "cell-based", "protocol": "as §3"}, "[15]": {"test_system": "Aspergillus niger", "assay": "checkerboard drug interaction (FICI, MICc)", "assay_type": "cell-based", "protocol": "as §3"}, "[16]": {"test_system": "Rhizopus oryzae", "assay": "MIC broth microdilution (CLSI)", "assay_type": "cell-based", "details": "Rhizopus oryzae 04-14-364-1703", "protocol": "as §2"}, "[17]": {"test_system": "Candida parapsilosis", "assay": "checkerboard drug interaction (FICI, MICc)", "assay_type": "cell-based", "protocol": "as §3"}, "[18]": {"test_system": "Fusarium solani", "assay": "MIC broth microdilution (CLSI)", "details": "Fusarium solani 04-16-056-1862", "protocol": "as §2"}, "[19]": {"test_system": "Trichophyton soudanense", "assay": "checkerboard drug interaction (FICI, MICc)", "assay_type": "cell-based", "protocol": "as §3"}, "[20]": {"test_system": "Aspergillus niger", "assay": "MIC broth microdilution (CLSI)", "assay_type": "cell-based", "details": "Aspergillus niger 111", "protocol": "as §2"}, "[21]": {"test_system": "Trichophyton tonsurans", "assay": "checkerboard drug interaction (FICI, MICc)", "assay_type": "cell-based", "protocol": "as §3"}, "[22]": {"test_system": "Trichophyton interdigitale", "assay": "MIC broth microdilution (CLSI)", "assay_type": "cell-based", "details": "Trichophyton interdigitale R-234", "protocol": "as §2"}, "[23]": {"test_system": "Cryptococcus gattii", "assay": "MIC broth microdilution (CLSI)", "assay_type": "cell-based", "details": "Cryptococcus gattii PNG27", "protocol": "as §2"}, "[24]": {"test_system": "Saccharomyces cerevisiae biofilms", "assay": "biofilm XTT reduction assay (SIC80, SFICI)", "assay_type": "cell-based", "details": "FLC:10-ZOL combination, Saccharomyces cerevisiae", "protocol": "(§4) Biofilms of Cryptococcus were seeded in DMEM, and all other species were seeded in RPMI-1640."}, "[25]": {"test_system": "Trichophyton rubrum biofilms", "assay": "biofilm XTT reduction assay (SIC80, SFICI)", "assay_type": "cell-based", "details": "biofilm, agent alone; Trichophyton rubrum 213", "protocol": "as §4"}, "[26]": {"test_system": "Candida albicans biofilms", "assay": "biofilm XTT reduction assay (SIC80, SFICI)", "details": "agent alone, Candida albicans SC5314", "protocol": "as §4"}, "[27]": {"test_system": "Aspergillus flavus biofilms", "assay": "biofilm XTT reduction assay (SIC80, SFICI)", "assay_type": "cell-based", "text": "(§1) […]. […] […]."}, "[28]": {"test_system": "Aspergillus fumigatus biofilms", "assay": "biofilm XTT reduction assay (SIC80, SFICI)", "assay_type": "cell-based", "text": "as §1"}, "[29]": {"test_system": "Candida glabrata biofilms", "assay": "biofilm XTT reduction assay (SIC80, SFICI)", "assay_type": "cell-based", "text": "as §1"}}}
{"smiles": "Nc1nc(=O)[nH]cc1F", "note": "[5FC, 5-flucytosine]", "values": [{"measurement": "MIC / MEC", "setting": "[1]", "value": ">64", "unit": "µg/mL"}, {"measurement": "antifungal MICc", "setting": "[2]; in combination with 10-ZOL", "value": 32}, {"measurement": "antifungal MICc", "setting": "[2]; in combination with ZOL", "value": 32}, {"measurement": "MIC / MEC", "setting": "[3]", "value": 4, "unit": "µg/mL"}, {"measurement": "antifungal MICc", "setting": "[4]; in combination with 10-ZOL", "value": 64}, {"measurement": "antifungal MICc", "setting": "[4]; in combination with ZOL", "value": 128}, {"measurement": "MIC / MEC", "setting": "[5]", "value": ">64", "unit": "µg/mL"}, {"measurement": "MIC / MEC", "setting": "[6]", "value": ">64", "unit": "µg/mL"}, {"measurement": "MIC / MEC", "setting": "[7]", "value": 64, "unit": "µg/mL"}, {"measurement": "MIC / MEC", "setting": "[8]", "value": ">64", "unit": "µg/mL"}, {"measurement": "MIC / MEC", "setting": "[9]", "value": 64, "unit": "µg/mL"}, {"measurement": "MIC / MEC", "setting": "[10]", "value": ">64", "unit": "µg/mL"}, {"measurement": "antifungal MICc", "setting": "[11]; in combination with 10-ZOL", "value": 0.25}, {"measurement": "antifungal MICc", "setting": "[11]; in combination with ZOL", "value": 0.125}, {"measurement": "antifungal MICc", "setting": "[12]; in combination with 10-ZOL", "value": 256}, {"measurement": "antifungal MICc", "setting": "[12]; in combination with ZOL", "value": 256}, {"measurement": "MIC / MEC", "setting": "[13]", "value": ">64", "unit": "µg/mL"}, {"measurement": "antifungal MICc", "setting": "[14]; in combination with 10-ZOL", "value": 0.25}, {"measurement": "antifungal MICc", "setting": "[14]; in combination with ZOL", "value": 0.5}, {"measurement": "antifungal MICc", "setting": "[15]; in combination with 10-ZOL", "value": 512}, {"measurement": "antifungal MICc", "setting": "[15]; in combination with ZOL", "value": 256}, {"measurement": "MIC / MEC", "setting": "[16]", "value": ">64", "unit": "µg/mL"}, {"measurement": "antifungal MICc", "setting": "[17]; in combination with 10-ZOL", "value": 0.125}, {"measurement": "antifungal MICc", "setting": "[17]; in combination with ZOL", "value": 0.25}, {"measurement": "MIC / MEC", "setting": "[18]", "value": ">64", "unit": "µg/mL"}, {"measurement": "antifungal MICc", "setting": "[19]; in combination with 10-ZOL", "value": 64}, {"measurement": "antifungal MICc", "setting": "[19]; in combination with ZOL", "value": 64}, {"measurement": "MIC / MEC", "setting": "[20]", "value": ">64", "unit": "µg/mL"}, {"measurement": "antifungal MICc", "setting": "[21]; in combination with 10-ZOL", "value": 64}, {"measurement": "antifungal MICc", "setting": "[21]; in combination with ZOL", "value": 64}, {"measurement": "MIC / MEC", "setting": "[22]", "value": ">64", "unit": "µg/mL"}, {"measurement": "MIC / MEC", "setting": "[23]", "value": 0.5, "unit": "µg/mL"}]}
{"smiles": "OC(Cn1cncn1)(Cn1cncn1)c1ccc(F)cc1F", "note": "[FLC, fluconazole]", "values": [{"measurement": "antifungal MICc", "setting": "[2]; in combination with 10-ZOL", "value": 32}, {"measurement": "MIC / MEC", "setting": "[3]", "value": 1, "unit": "µg/mL"}, {"measurement": "antifungal MICc", "setting": "[4]; in combination with 10-ZOL", "value": 32}, {"measurement": "MIC / MEC", "setting": "[7]", "value": 64, "unit": "µg/mL"}, {"measurement": "SICc", "setting": "[24]", "value": 64, "unit": "µg/mL"}, {"measurement": "antifungal MICc", "setting": "[11]; in combination with 10-ZOL", "value": 1}, {"measurement": "antifungal MICc", "setting": "[11]; in combination with ZOL", "value": 0.25}, {"measurement": "antifungal MICc", "setting": "[12]; in combination with 10-ZOL", "value": 64}, {"measurement": "SIC80", "setting": "[25]", "value": "2,048 µg/mL"}, {"measurement": "antifungal MICc", "setting": "[14]; in combination with 10-ZOL", "value": 0.25}, {"measurement": "antifungal MICc", "setting": "[14]; in combination with ZOL", "value": 0.125}, {"measurement": "antifungal MICc", "setting": "[15]; in combination with 10-ZOL", "value": 64}, {"measurement": "SIC80", "setting": "[26]", "value": 512, "unit": "µg/mL"}, {"measurement": "antifungal MICc", "setting": "[17]; in combination with 10-ZOL", "value": 1}, {"measurement": "antifungal MICc", "setting": "[17]; in combination with ZOL", "value": 0.25}, {"measurement": "antifungal MICc", "setting": "[19]; in combination with 10-ZOL", "value": 4}, {"measurement": "antifungal MICc", "setting": "[19]; in combination with ZOL", "value": 64}, {"measurement": "SICc", "setting": "[27]; FLC:10-ZOL combination, Aspergillus flavus", "value": 512, "unit": "µg/mL"}, {"measurement": "SIC80", "setting": "[27]; agent alone, Aspergillus flavus ATCC 204304", "value": "1,024 µg/mL"}, {"measurement": "SICc", "setting": "[28]; FLC:10-ZOL combination, Aspergillus fumigatus", "value": 512, "unit": "µg/mL"}, {"measurement": "SIC80", "setting": "[28]; agent alone, Aspergillus fumigatus ATCC 204305", "value": ">2,048 µg/mL"}, {"measurement": "SICc", "setting": "[29]; FLC:10-ZOL combination, Candida glabrata", "value": 512, "unit": "µg/mL"}, {"measurement": "SIC80", "setting": "[29]; agent alone, Candida glabrata CBS138", "value": ">2,048 µg/mL"}, {"measurement": "antifungal MICc", "setting": "[21]; in combination with 10-ZOL", "value": 2}, {"measurement": "antifungal MICc", "setting": "[21]; in combination with ZOL", "value": 32}, {"measurement": "MIC / MEC", "setting": "[23]", "value": 2, "unit": "µg/mL"}]}
